Measurements from ChEMBL document CHEMBL1153078, “Design and synthesis of acetamido tri- and tetra-hydroxyazepanes: potent and selective beta-N-acetylhexosaminidase inhibitors” (Bioorg Med Chem, 2009).
Calls of active or inactive are those of the source. The calls are words filed in the database; no cut-off is given here.

Legend:
[1] = molecular target: Alpha-galactosidase (Coffea arabica) (UniProt Q42656); assay: Inhibition of coffee bean alpha-galactosidase at 1 mM
[2] = molecular target: Beta-galactosidase (Escherichia coli) (UniProt Q8VNN2); assay: Inhibition of Escherichia coli beta-galactosidase at 1 mM
[3] = molecular target: T1, Beta-galactosidase (Aspergillus oryzae) (UniProt Q2U7N3); assay: Inhibition of Aspergillus oryzea beta-galactosidase at 1 mM
T1 sequence (whole entry): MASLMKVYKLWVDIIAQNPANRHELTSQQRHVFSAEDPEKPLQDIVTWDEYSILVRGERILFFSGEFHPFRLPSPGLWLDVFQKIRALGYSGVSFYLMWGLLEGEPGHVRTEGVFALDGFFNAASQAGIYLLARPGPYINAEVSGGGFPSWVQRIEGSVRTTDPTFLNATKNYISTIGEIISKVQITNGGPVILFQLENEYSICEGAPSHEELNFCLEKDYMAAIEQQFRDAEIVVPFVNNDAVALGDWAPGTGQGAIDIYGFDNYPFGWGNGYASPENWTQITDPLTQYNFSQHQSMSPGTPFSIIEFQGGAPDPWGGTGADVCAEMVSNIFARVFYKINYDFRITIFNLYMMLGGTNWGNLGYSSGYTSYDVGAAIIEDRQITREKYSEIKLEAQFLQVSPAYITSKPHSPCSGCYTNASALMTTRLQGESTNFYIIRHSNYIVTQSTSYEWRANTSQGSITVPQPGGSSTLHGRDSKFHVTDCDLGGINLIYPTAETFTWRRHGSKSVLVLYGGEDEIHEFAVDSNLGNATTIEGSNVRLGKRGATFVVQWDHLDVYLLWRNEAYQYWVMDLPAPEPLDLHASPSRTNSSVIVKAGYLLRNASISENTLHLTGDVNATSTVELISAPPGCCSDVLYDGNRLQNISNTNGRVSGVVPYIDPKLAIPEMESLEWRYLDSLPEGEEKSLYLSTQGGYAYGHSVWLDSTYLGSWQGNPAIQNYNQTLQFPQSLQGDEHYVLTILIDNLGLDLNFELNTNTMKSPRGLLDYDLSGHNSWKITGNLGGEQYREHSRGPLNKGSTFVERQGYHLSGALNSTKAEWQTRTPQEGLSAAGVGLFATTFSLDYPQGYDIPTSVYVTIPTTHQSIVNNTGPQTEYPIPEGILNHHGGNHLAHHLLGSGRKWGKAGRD

[4] = system: Helix pomatia; assay: Inhibition of snail beta-mannosidase at 1 mM
[5] = system: Prunus dulcis; assay: Inhibition of almond beta-glucosidase at 1 mM
[6] = system: Aspergillus oryzae; assay: Inhibition of Aspergillus oryzea beta-xylosidase at 1 mM
[7] = molecular target: T2, Tissue alpha-L-fucosidase (Bos taurus) (UniProt Q2KIM0); assay: Inhibition of bovine epididymis alpha-L-fucosidase at 1 mM
T2 sequence (whole entry): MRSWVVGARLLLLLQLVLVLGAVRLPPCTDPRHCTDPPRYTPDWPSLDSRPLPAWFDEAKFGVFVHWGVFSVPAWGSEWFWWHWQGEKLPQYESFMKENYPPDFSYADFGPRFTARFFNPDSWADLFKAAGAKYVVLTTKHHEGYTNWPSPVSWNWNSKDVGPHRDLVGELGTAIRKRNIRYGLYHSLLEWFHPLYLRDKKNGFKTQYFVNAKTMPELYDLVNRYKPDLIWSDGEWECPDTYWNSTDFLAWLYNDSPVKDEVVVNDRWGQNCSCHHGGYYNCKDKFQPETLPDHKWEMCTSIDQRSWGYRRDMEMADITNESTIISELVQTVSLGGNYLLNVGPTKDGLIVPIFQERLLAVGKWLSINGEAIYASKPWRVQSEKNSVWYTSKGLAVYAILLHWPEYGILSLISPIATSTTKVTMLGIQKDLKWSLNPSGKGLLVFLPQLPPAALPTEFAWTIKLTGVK

[8] = system: Saccharomyces cerevisiae; assay: Inhibition of yeast alpha-glucosidase at 1 mM
[9] = system: Oryza sativa; assay: Inhibition of rice alpha-glucosidase at 1 mM
[10] = system: Aspergillus niger; assay: Inhibition of Aspergillus niger amyloglucosidase at 1 mM
[11] = system: Canavalia ensiformis; assay: Inhibition of jack bean alpha-mannosidase at 1 mM
[12] = system: Canavalia ensiformis; assay: Inhibition of jack bean beta-N-acetylglucosaminidase at 1 mM
[13] = species: Bos taurus; assay: Inhibition of bovine liver beta-N-acetylglucosaminidase at 1 mM
[14] = Inhibition of jack bean beta-N-acetylglucosaminidase; set-up: species or system Canavalia ensiformis
[15] = Inhibition of bovine liver beta-N-acetylglucosaminidase; set-up: species or system Bos taurus
[16] = system: Canavalia ensiformis; assay: Inhibition of jack bean beta-N-acetylglucosaminidase at 240 uM
[17] = species: Bos taurus; assay: Inhibition of bovine liver beta-N-acetylglucosaminidase at 240 uM

Chain of Beta-galactosidase (Escherichia coli) (Q8VNN2 whole entry, looked up): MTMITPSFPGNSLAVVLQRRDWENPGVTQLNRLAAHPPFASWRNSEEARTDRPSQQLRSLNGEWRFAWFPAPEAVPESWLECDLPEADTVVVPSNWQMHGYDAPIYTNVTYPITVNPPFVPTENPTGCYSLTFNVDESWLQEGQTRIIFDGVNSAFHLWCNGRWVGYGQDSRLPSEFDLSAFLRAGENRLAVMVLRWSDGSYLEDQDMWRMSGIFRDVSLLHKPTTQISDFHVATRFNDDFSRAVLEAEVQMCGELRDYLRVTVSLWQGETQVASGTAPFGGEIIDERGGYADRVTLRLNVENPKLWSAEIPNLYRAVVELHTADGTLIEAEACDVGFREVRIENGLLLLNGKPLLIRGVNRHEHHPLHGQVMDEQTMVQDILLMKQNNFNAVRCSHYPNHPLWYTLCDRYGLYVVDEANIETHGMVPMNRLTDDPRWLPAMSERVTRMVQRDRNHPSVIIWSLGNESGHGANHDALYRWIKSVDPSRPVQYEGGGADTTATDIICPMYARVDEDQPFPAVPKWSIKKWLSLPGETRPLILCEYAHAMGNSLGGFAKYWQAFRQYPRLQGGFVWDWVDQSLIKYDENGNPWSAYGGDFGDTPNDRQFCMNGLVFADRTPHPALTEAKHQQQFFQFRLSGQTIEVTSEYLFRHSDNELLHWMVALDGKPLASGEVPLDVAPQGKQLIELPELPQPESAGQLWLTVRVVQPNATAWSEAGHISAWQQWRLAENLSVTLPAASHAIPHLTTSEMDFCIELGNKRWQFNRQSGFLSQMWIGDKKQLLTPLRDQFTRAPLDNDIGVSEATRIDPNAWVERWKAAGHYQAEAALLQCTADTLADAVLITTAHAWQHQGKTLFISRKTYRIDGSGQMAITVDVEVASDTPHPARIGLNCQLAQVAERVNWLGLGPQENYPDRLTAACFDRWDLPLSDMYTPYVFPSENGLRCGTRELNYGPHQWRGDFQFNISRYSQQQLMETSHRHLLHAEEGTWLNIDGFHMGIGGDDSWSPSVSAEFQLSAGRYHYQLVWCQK
Chain of Alpha-galactosidase (Coffea arabica) (Q42656 16-378 limits assumed): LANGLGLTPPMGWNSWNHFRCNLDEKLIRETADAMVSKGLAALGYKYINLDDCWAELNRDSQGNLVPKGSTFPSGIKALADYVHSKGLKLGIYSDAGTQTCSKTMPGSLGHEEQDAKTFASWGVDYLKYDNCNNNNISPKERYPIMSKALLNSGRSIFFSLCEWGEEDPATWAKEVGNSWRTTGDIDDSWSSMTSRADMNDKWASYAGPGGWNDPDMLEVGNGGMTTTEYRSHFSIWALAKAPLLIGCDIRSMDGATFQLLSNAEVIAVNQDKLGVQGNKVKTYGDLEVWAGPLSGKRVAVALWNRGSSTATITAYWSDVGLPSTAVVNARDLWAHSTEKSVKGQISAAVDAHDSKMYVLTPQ

Row | inhibition [1] | inhibition [2] | inhibition [3] | inhibition [4] | inhibition [5] | inhibition [6] | inhibition [7] | inhibition [8] | inhibition [9] | inhibition [10] | inhibition [11] | inhibition [12] [%] | inhibition [13] [%] | Ki [14] [nM] | Ki [15] [nM] | inhibition [16] [%] | inhibition [17] [%] | SMILES
1 | inactive | inactive | inactive | inactive | inactive | inactive | inactive | inactive | inactive | inactive | inactive | 93 | 68 |  |  |  |  | CC(=O)N[C@@H]1CNC[C@H](O)[C@@H](O)[C@@H]1O
2 | inactive | inactive | inactive | inactive | inactive | inactive | inactive | inactive | inactive | inactive | inactive | 88 | 74 | 30000 |  |  |  | CC(=O)N[C@H]1CN[C@H](CO)[C@@H](O)[C@H](O)[C@@H]1O
3 | inactive | inactive | inactive | inactive | inactive | inactive | inactive | inactive | inactive | inactive | 25% | 98 | 99 | 500 | 600 |  |  | CC(=O)N[C@@H]1[C@@H](O)[C@H](O)[C@@H](CO)NC[C@H]1O
4 | inactive | inactive | inactive | inactive | inactive | inactive | 28% | inactive | inactive | 19% | inactive | 99 | 99 | 400 | 700 | 22 | 22 | CC(=O)N[C@H]1CNC[C@H](O)[C@@H](O)[C@@H]1O
